Reference: the NIST ThermoML archive (doi:10.1021/je100967k)

Tests used:
[1] = xn = mol fraction of the nth substance listed; details: 101 kPa, Liquid; for speed of sound: Pulse-echo method
[2] = refractive index (Na D-line) (dimensionless); xn = mol fraction of the nth substance listed; details: 101 kPa, Liquid, Standard Abbe refractometry

CN1CCCC1=O [N-methylpyrrolidone] + CCO
Details | mass density, [1] [kg/m3] | refractive index, [2] | speed of sound, [1] [m/s] | viscosity, [1] [mPa·s]
293.15 K, x1 = 0.0992 | 829.76 | 1.3797 | 1226.1 | 1.139
293.15 K, x1 = 0.1985 | 864.84 | 1.3953 | 1284.2 | 1.173
293.15 K, x1 = 0.2973 | 894.36 | 1.4089 | 1331.7 | 1.218
293.15 K, x1 = 0.3963 | 920.89 | 1.4209 | 1375.7 | 1.275
293.15 K, x1 = 0.4948 | 944.41 | 1.4313 | 1414.8 | 1.354
293.15 K, x1 = 0.5932 | 965 | 1.4406 | 1448.9 | 1.436
293.15 K, x1 = 0.6912 | 983.96 | 1.449 | 1480.7 | 1.524
293.15 K, x1 = 0.7897 | 1000.86 | 1.4563 | 1509.4 | 1.626
293.15 K, x1 = 0.8875 | 1016.79 | 1.4633 | 1537 | 1.726
293.15 K, x1 = 1 | 1032.87 | 1.4706 | 1565.3 | 1.858
303.15 K, x1 = 0.0992 | 820.98 | 1.376 | 1191.3 | 0.9625
303.15 K, x1 = 0.1985 | 855.96 | 1.3916 | 1248.9 | 0.986
303.15 K, x1 = 0.2973 | 885.42 | 1.4051 | 1295.9 | 1.033
303.15 K, x1 = 0.3963 | 911.91 | 1.4168 | 1338.9 | 1.09
303.15 K, x1 = 0.4948 | 935.43 | 1.4273 | 1377.6 | 1.15
303.15 K, x1 = 0.5932 | 955.97 | 1.4366 | 1411.4 | 1.22
303.15 K, x1 = 0.6912 | 974.94 | 1.4449 | 1442.9 | 1.292
303.15 K, x1 = 0.7897 | 991.85 | 1.4523 | 1471.4 | 1.371
303.15 K, x1 = 0.8875 | 1007.8 | 1.4593 | 1498.5 | 1.45
303.15 K, x1 = 1 | 1023.95 | 1.4664 | 1526.5 | 1.553
313.15 K, x1 = 0.0992 | 812.09 | 1.3717 | 1157 | 0.803
313.15 K, x1 = 0.1985 | 846.98 | 1.3872 | 1214.7 | 0.8276
313.15 K, x1 = 0.2973 | 876.39 | 1.4011 | 1260.3 | 0.867
313.15 K, x1 = 0.3963 | 902.87 | 1.4127 | 1302.5 | 0.9234
313.15 K, x1 = 0.4948 | 926.39 | 1.4234 | 1341 | 0.98
313.15 K, x1 = 0.5932 | 946.9 | 1.4329 | 1374.2 | 1.039
313.15 K, x1 = 0.6912 | 965.89 | 1.4411 | 1405.3 | 1.109
313.15 K, x1 = 0.7897 | 982.82 | 1.4484 | 1433.5 | 1.173
313.15 K, x1 = 0.8875 | 998.8 | 1.4552 | 1460.3 | 1.237
313.15 K, x1 = 1 | 1015.03 | 1.4621 | 1487.8 | 1.324
323.15 K, x1 = 0.0992 | 803.05 | 1.3677 | 1122.7 | 0.657
323.15 K, x1 = 0.1985 | 837.87 | 1.3837 | 1179.6 | 0.691
323.15 K, x1 = 0.2973 | 867.27 | 1.3974 | 1224.9 | 0.731
323.15 K, x1 = 0.3963 | 893.76 | 1.4089 | 1266.6 | 0.782
323.15 K, x1 = 0.4948 | 917.3 | 1.4195 | 1304.6 | 0.833
323.15 K, x1 = 0.5932 | 937.79 | 1.4289 | 1337.3 | 0.895
323.15 K, x1 = 0.6912 | 956.8 | 1.4372 | 1368.3 | 0.952
323.15 K, x1 = 0.7897 | 973.77 | 1.4443 | 1396.1 | 1.011
323.15 K, x1 = 0.8875 | 989.78 | 1.4512 | 1422.8 | 1.071
323.15 K, x1 = 1 | 1006.1 | 1.4576 | 1450.2 | 1.146

NCCO [2-aminoethan-1-ol] + CN1CCCC1=O
Details | mass density, [1] [kg/m3] | refractive index, [2] | speed of sound, [1] [m/s] | viscosity, [1] [mPa·s]
293.15 K, x2 = 0 | 1016.65 | 1.4525 | 1735.9 | 24.61
293.15 K, x2 = 0.1 | 1017.8 | 1.4546 | 1701.7 | 17.43
293.15 K, x2 = 0.209 | 1019.27 | 1.4567 | 1673.2 | 11.99
293.15 K, x2 = 0.3 | 1020.59 | 1.4587 | 1649.8 | 8.496
293.15 K, x2 = 0.4 | 1022.06 | 1.4604 | 1630.1 | 6.211
293.15 K, x2 = 0.5 | 1023.46 | 1.462 | 1613.2 | 4.761
293.15 K, x2 = 0.596 | 1024.91 | 1.4634 | 1599.1 | 3.622
293.15 K, x2 = 0.7 | 1026.57 | 1.4648 | 1587.7 | 2.883
293.15 K, x2 = 0.8 | 1028.4 | 1.4663 | 1578.6 | 2.401
293.15 K, x2 = 0.907 | 1030.5 | 1.4677 | 1571.4 | 2.089
303.15 K, x2 = 0 | 1008.74 | 1.4488 | 1703.7 | 14.96
303.15 K, x2 = 0.1 | 1009.8 | 1.4507 | 1668.1 | 10.93
303.15 K, x2 = 0.209 | 1011 | 1.4527 | 1638.4 | 7.985
303.15 K, x2 = 0.3 | 1012.1 | 1.4546 | 1613.8 | 5.834
303.15 K, x2 = 0.4 | 1013.5 | 1.4563 | 1593.6 | 4.433
303.15 K, x2 = 0.5 | 1014.9 | 1.4578 | 1576 | 3.752
303.15 K, x2 = 0.596 | 1016.3 | 1.4592 | 1561.2 | 2.822
303.15 K, x2 = 0.7 | 1018 | 1.4605 | 1549.8 | 2.296
303.15 K, x2 = 0.8 | 1019.7 | 1.4619 | 1540.5 | 1.95
303.15 K, x2 = 0.907 | 1021.72 | 1.4632 | 1532.7 | 1.725
313.15 K, x2 = 0 | 1000.77 | 1.4449 | 1671.2 | 9.839
313.15 K, x2 = 0.1 | 1001.6 | 1.4467 | 1634.1 | 7.429
313.15 K, x2 = 0.209 | 1002.38 | 1.4486 | 1603.1 | 5.559
313.15 K, x2 = 0.3 | 1003.2 | 1.4505 | 1578.6 | 4.278
313.15 K, x2 = 0.4 | 1004.2 | 1.452 | 1557.3 | 3.358
313.15 K, x2 = 0.5 | 1005.5 | 1.4534 | 1538.9 | 2.697
313.15 K, x2 = 0.596 | 1006.9 | 1.4548 | 1523.9 | 2.245
313.15 K, x2 = 0.7 | 1008.69 | 1.4561 | 1512.1 | 1.866
313.15 K, x2 = 0.8 | 1010.68 | 1.4575 | 1502.6 | 1.62
313.15 K, x2 = 0.907 | 1012.79 | 1.4588 | 1494.4 | 1.462
323.15 K, x2 = 0 | 992.75 | 1.4417 | 1638.8 | 6.902
323.15 K, x2 = 0.1 | 993.31 | 1.4434 | 1600.2 | 5.386
323.15 K, x2 = 0.209 | 994 | 1.4451 | 1568.9 | 4.159
323.15 K, x2 = 0.3 | 994.64 | 1.4466 | 1544.4 | 3.289
323.15 K, x2 = 0.4 | 995.6 | 1.4479 | 1521.5 | 2.625
323.15 K, x2 = 0.5 | 996.7 | 1.4493 | 1502 | 2.173
323.15 K, x2 = 0.596 | 998.14 | 1.4506 | 1486.7 | 1.883
323.15 K, x2 = 0.7 | 999.74 | 1.4519 | 1474.5 | 1.574
323.15 K, x2 = 0.8 | 1001.73 | 1.4533 | 1464.8 | 1.356
323.15 K, x2 = 0.907 | 1003.86 | 1.4545 | 1456.8 | 1.24
